Source: article PMC10439230 (Scientific Reports, 2023)

Key:
[1] = test system: A549 (lung adenocarcinoma); assay: Cytotoxic activity assay (MTT); format: cell-based, human; conditions: for IC50: Homo sapiens, A549, 48 h exposure, MTT, read-out: Cell lines, IC50 (μM) A549; for Selectivity Index (SI) values A549: SI = IC50 normal cell (MRC-5)/ IC50 cancer cell
Text: (§1) The synthetic compounds were screened for their cytotoxic activity using standard MTT or XTT methods[30] against a panel of nine human cancer cell lines and one normal cell line, including MDA-MB-231 (triple-negative breast cancer), T-47D (hormone-dependent breast cancer), HepG2 (hepatocellular carcinoma), A549 (lung adenocarcinoma), H69AR (multidrug-resistant small cell lung carcinoma), HuCCA-1 (cholangiocarcinoma derived from a patient), HeLa (cervical carcinoma), and two leukemia cell lines, HL-60 (acute promyelocytic leukemia) and MOLT-3 (T cell acute lymphoblastic leukemia). MRC-5 normal embryonic lung fibroblast cell line was used to represent normal cells. Chemotherapeutic drugs, doxorubicin and etoposide, were used as positive controls.
(§2) The cells were seeded into 96-well plates (100 µL for adherent cells and 75 µL for suspended cells) at a density of 5000–20,000 cells per well, depending on their growth rates. Adherent and suspended cells were then allowed to grow at 37 °C with 95% humidity and 5% CO2 for 24 h and 30 min, respectively. The cytotoxicity assay was initiated by adding an equal volume of cell culture medium containing tested compound at predetermined concentrations. Following 48 h of exposure, cell viability was determined using MTT assay for adherent cells[51],[52]or XTT assay for suspeended cells. Briefly, for adherent cells, 100 µL of the MTT reagent was added to each well, and the microtiter plates were further incubated for 2.5–4 h. The medium was subsequently replaced with 100 µL of DMSO to dissolve the purple formazan before the absorbance at 550 nm was measured using a microplate reader (a SpectraMax Plus 384) with a reference wavelength of 650 nm. For suspended cells, 75 µL of the XTT reagent was added to each well, and the cells were further incubated for 4 h. Afterwards, the absorbance of orange formazan at 492 nm was measured with a reference wavelength of 690 nm using a microplate reader.

[2] = test system: H69AR (multidrug-resistant small cell lung carcinoma); assay: Cytotoxic activity assay (MTT); format: cell-based, human; conditions: for IC50: Homo sapiens, H69AR, 48 h exposure, MTT, read-out: Cell lines, IC50 (μM) H69AR; for Selectivity Index (SI) values H69AR: SI = IC50 normal cell (MRC-5)/ IC50 cancer cell
Text: as §1, §2

[3] = test system: HeLa (cervical carcinoma); assay: Cytotoxic activity assay (MTT); format: cell-based, human; conditions: for IC50: Homo sapiens, 48 h exposure, MTT, read-out: Cell lines, IC50 (μM) HeLa; for Selectivity Index (SI) values HeLa: SI = IC50 normal cell (MRC-5)/ IC50 cancer cell
Text: as §1, §2

[4] = test system: HepG2 (hepatocellular carcinoma); assay: Cytotoxic activity assay (MTT); format: cell-based, human; conditions: for IC50: Homo sapiens, HepG2, 48 h exposure, MTT, read-out: Cell lines, IC50 (μM) HepG2; for Selectivity Index (SI) values HepG2: SI = IC50 normal cell (MRC-5)/ IC50 cancer cell
Text: as §1, §2

[5] = test system: HuCCA-1 (cholangiocarcinoma derived from a patient); assay: Cytotoxic activity assay (MTT); format: cell-based, human; conditions: for IC50: Homo sapiens, HuCC-A1, 48 h exposure, MTT, read-out: Cell lines, IC50 (μM) HuCCA-1; for Selectivity Index (SI) values HuCCA-1: SI = IC50 normal cell (MRC-5)/ IC50 cancer cell
Text: as §1, §2

[6] = test system: MDA-MB-231 (triple-negative breast cancer); assay: Cytotoxic activity assay (MTT); format: cell-based, human; conditions: for IC50: Homo sapiens, MDA-MB-231, 48 h exposure, MTT, read-out: Cell lines, IC50 (μM) MDA-MB-231; for Selectivity Index (SI) values MDA-MB-231: SI = IC50 normal cell (MRC-5)/ IC50 cancer cell
Text: as §1, §2

[7] = test system: T-47D (hormone-dependent breast cancer); assay: Cytotoxic activity assay (MTT); format: cell-based, human; conditions: for IC50: Homo sapiens, T47D, 48 h exposure, MTT, read-out: Cell lines, IC50 (μM) T47-D; for Selectivity Index (SI) values T47-D: SI = IC50 normal cell (MRC-5)/ IC50 cancer cell
Text: as §1, §2

[8] = test system: HL-60 (acute promyelocytic leukemia); assay: Cytotoxic activity assay (XTT); format: cell-based, human; conditions: for IC50: Homo sapiens, HL-60, 48 h exposure, XTT, read-out: Cell lines, IC50 (μM) HL-60; for Selectivity Index (SI) values HL-60: SI = IC50 normal cell (MRC-5)/ IC50 cancer cell
Text: as §1, §2

[9] = test system: MOLT-3 (T cell acute lymphoblastic leukemia); assay: Cytotoxic activity assay (XTT); format: cell-based, human; conditions: for IC50: Homo sapiens, MOLT-3, 48 h exposure, XTT, read-out: Cell lines, IC50 (μM) MOLT-3; for Selectivity Index (SI) values MOLT-3: SI = IC50 normal cell (MRC-5)/ IC50 cancer cell
Text: as §1, §2

[10] = test system: MRC-5 normal embryonic lung fibroblast cell line; assay: Cytotoxic activity assay (MTT), normal cells; format: cell-based; conditions: Homo sapiens, MRC5, 48 h exposure, read-out: Cell lines, IC50 (μM) MRC-5
Text: as §1, §2

MDA-MB-231 cells = assay: Cell death analysis, annexin V/7-AAD double staining, flow cytometry; format: cell-based, human; conditions: MDA-MB-231 cells, 24–48 h treatment
Procedure: Mode of cell death induced by compound 4l was explored using MDA-MB-231 cells by observing change in cell morphology and flow cytometric analysis of annexin V/7-AAD double stained cells. […] Accidental cell death necrosis is typically indicated by the immediate production of bubbles on the cell surface after treatment. […] Additionally, vacuole accumulation was not observed in the treated cells until 48 h after treatment (Fig. 3a). Taken together, we hypothesized that 4l-induced cell death in MDA-MB-231 cells was not processed through necrosis or vacuole-presenting regulated cell death such as autophagy.
Briefly, MDA-MB-231 cells were seeded into 6-well culture plates at 1 × 10^6 cells/well and left in a CO2 incubator for 24 h. Subsequently, the cells were treated with tested compounds for 24–48 h. DMSO was used as a vehicle and its final concentration was kept at 0.2% (v/v) throughout the study. The treated cells were harvested by trypsinization and subjected to annexin V/7-AAD double staining using Muse® Annexin V & Dead Cell Kit as previously described. The stained cells were analyzed by flow cytometric technique using Muse® Cell Analyzer. Population of annexin V-positive cells was defined as early apoptotic cells, and the population positive for both annexin V and 7-AAD was defined as late apoptotic cells. The sequential events of increasing early and late apoptotic cell populations over time is a characteristic of apoptotic cell death.

phospho-FAK (Y397) = assay: Western blot analysis of FAK phosphorylation; format: cell-based, human; conditions: MDA-MB-231 cells, 16 μM, 24 h
Procedure: We further investigated targets of compound 4l on cell survival signaling pathways including EGFR, FAK, Akt, and ERK in MDA-MB-231 cells. After treatment with 4l at concentrations of 25–50 µM for 24 h, activation (phosphorylation) of the signaling pathways was determined by using western blot analysis.
MDA-MB-231 cells in 6-well culture plates (1 × 10^6 cells/well) were treated with tested compounds for 24 h. Then the cells were harvested and western blot analysis was used to detect alteration of targeted proteins in the treated cells, as previously described. Briefly, the cells in 6-well culture plates were scraped in RIPA cell lysis buffer supplemented with protease/phosphatase inhibitor cocktail before being lysed by sonication. Cell lysates were centrifuged at 12,000×g for 5 min, at 4 °C, to remove cell debris. Total proteins (20 μg) in the cell lysates were separated by SDS-PAGE and blotted to PVDF membranes. The membranes were blocked with 3% (w/v) BSA and incubated overnight at 4 °C with primary antibodies specific to the following proteins: EGFR, phospho-EGFR (Y845), FAK, phospho-FAK (Y397), Akt, phospho-Akt (S473), ERK, and phospho-ERK (T202/Y204). […] Bands of specific proteins were detected by using SuperSignal™ ECL substrates and visualized on X-ray films.

Row | Compound | IC50 [1] | Selectivity Index (SI) values A549 [1] | IC50 [2] | Selectivity Index (SI) values H69AR [2] | IC50 [3] | Selectivity Index (SI) values HeLa [3] | IC50 [4] | Selectivity Index (SI) values HepG2 [4] | IC50 [5] | Selectivity Index (SI) values HuCCA-1 [5] | IC50 [6] | Selectivity Index (SI) values MDA-MB-231 [6] | IC50 [7] | Selectivity Index (SI) values T47-D [7] | IC50 [8] | Selectivity Index (SI) values HL-60 [8] | IC50 [9] | Selectivity Index (SI) values MOLT-3 [9] | IC50 [10] | also measured
1 | C=C1CC[C@H]2C(C)(C)CCC[C@]2(C)[C@H]1CC/C(C)=C/C(=O)N1CCCCC1 [Compound 4n, (E)-3-Methyl-1-(piperidin-1-yl)-5-((1S,4aS,8aS)-5,5,8a-trimethyl-2-methylenedecahydronaphthalen-1-yl)pent-2-en-1-one] | 41.7 ± 1.43 µM | 0.9 | 52.31 ± 0.42 µM | 0.7 | 38.91 ± 0.13 µM | 1.0 | 32.2 ± 1.37 µM | 1.2 | 41.25 ± 0.19 µM | 0.9 | 33.9 ± 1.93 µM | 1.1 | 73 ± 3.31 µM | 0.5 | 20.5 ± 0.5 µM | 1.9 | 21 ± 0.32 µM | 1.8 | 38.4 ± 1.2 µM | –
2 | C=C1CC[C@H]2C(C)(C)CCC[C@]2(C)[C@H]1CC/C(C)=C/C(=O)N(C)OC [Compound 4o, (E)-N-Methoxy-N,3-dimethyl-5-((1S,4aS,8aS)-5,5,8a-trimethyl-2-methylene-decahydronaphthalen-1-yl)pent-2-enamide] | 82.4 ± 0.99 µM | 0.6 | 115.1 ± 0.64 µM | 0.4 | 52.86 ± 0.02 µM | 0.9 | 57.3 ± 1.82 µM | 0.8 | 54.3 ± 1.18 µM | 0.9 | 38.8 ± 0.44 µM | 1.2 | 46.4 ± 1.73 µM | 1.0 | 27.9 ± 1.99 µM | 1.7 | 29.8 ± 1.89 µM | 1.6 | 47.2 ± 0.96 µM | –
3 | C=C1CC[C@H]2C(C)(C)CCC[C@]2(C)[C@H]1CC/C(C)=C/C(=O)N(C)O [Compound 4p, (E)-N-Hydroxy-N,3-dimethyl-5-((1S,4aS,8aS)-5,5,8a-trimethyl-2-methylenedecahydronaphthalen-1-yl)pent-2-enamide] | 61.4 ± 2.16 µM | 1.1 | 96.67 ± 0.08 µM | 0.7 | 33.6 ± 0.54 µM | 2.1 | 64.6 ± 0.76 µM | 1.1 | 58.6 ± 1.2 µM | 1.2 | 24.5 ± 0.61 µM | 2.8 | 35.7 ± 1.01 µM | 2.0 | 6.81 ± 1.99 µM | 10.2 | 3.72 ± 0.26 µM | 18.8 | 69.8 ± 1.24 µM | –
4 | C=C1CC[C@H]2C(C)(C)CCC[C@]2(C)[C@H]1CC/C(C)=C/C(=O)NCC(=O)OC [Compound 4q, Methyl ((E)-3-methyl-5-((1S,4aS,8aS)-5,5,8a-trimethyl-2-methylenedeca-hydronaphthalen-1-yl)pent-2-enoyl)glycinate] | 43.8 ± 3.08 µM | 1.5 | 61.4 ± 2.03 µM | 1.1 | 39.1 ± 0.78 µM | 1.7 | 73.89 ± 0.3 µM | 0.9 | 81.1 ± 2.42 µM | 0.8 | 46.2 ± 1.89 µM | 1.4 | 71.3 ± 2.07 µM | 0.9 | 26 ± 0.55 µM | 2.5 | 14.9 ± 0.32 µM | 4.4 | 65.29 ± 0.11 µM | –
5 | C=C1CCC2C(C)(C)CCCC2(C)C1CCC(C)=CC(=O)NCC(=O)OCC [Compound 4r, Ethyl ((E)-3-methyl-5-((1S,4aS,8aS)-5,5,8a-trimethyl-2-methylenedec-ahydronaphthalen-1-yl)pent-2-enoyl)glycinate] | 67.3 ± 2.09 µM | 0.9 | 45.9 ± 1.8 µM | 1.4 | 36.6 ± 1.44 µM | 1.7 | 61.3 ± 1.12 µM | 1.0 | 72.3 ± 1.93 µM | 0.9 | 23.4 ± 0.81 µM | 2.7 | 87.2 ± 6.02 µM | 0.7 | 23.9 ± 0.59 µM | 2.7 | 11.5 ± 1.13 µM | 5.6 | 63.9 ± 0.65 µM | –
6 | Cl.Cl.Cl.Cl.Nc1cc(N)c(N)cc1N [FAKi, 1,2,4,5-benzenetetraamine tetrahydrochloride, reference compound] | – | – | – | – | – | – | – | – | – | – | – | – | – | – | – | – | – | – | – | mode of cell death (MDA-MB-231 cells): non-apoptotic cell death; FAK phosphorylation (phospho-FAK (Y397)): clearly inhibited
